In PubChem BioAssay AID2060359 (Molecular Pharmacology Branch, DTP, NCI, 2025):

Tested on: 276233-004-R-J1-PDC spheroids with HUVEC/MSC, viability
Test: Anticancer human tumor 276233-004-R-J1-PDC patient-derived colon adenocarcinoma cell line growth inhibition [TAK]
Conditions: for IC50: curve of first compound; for viability, T/C: stronger effect = lower value
Outline: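 Spheroids of 60% malignant cells, 25% HUVEC and 15% hMSC were exposed to targeted agents combined with TAK-243 or ipatasertib. Concentrations started at or near clinical Cmax (10 microM if unknown) and descended in half-log steps.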

[1] = second compound 0.3 µM, first compound 0.0316 µM
[2] = second compound 0.3 µM, first compound 0.1 µM
[3] = second compound 0.3 µM, first compound 0.316 µM
[4] = second compound 0.3 µM, first compound 1 µM
[5] = second compound 0.949 µM, first compound 0.0316 µM
[6] = second compound 0.949 µM, first compound 0.1 µM
[7] = second compound 0.949 µM, first compound 0.316 µM
[8] = second compound 0.949 µM, first compound 1 µM
[9] = second compound 3 µM, first compound 0.0316 µM
[10] = second compound 3 µM, first compound 0.1 µM
[11] = second compound 3 µM, first compound 0.316 µM
[12] = second compound 3 µM, first compound 1 µM
[13] = second compound 9.49 µM, first compound 0.0316 µM
[14] = second compound 9.49 µM, first compound 0.1 µM
[15] = second compound 9.49 µM, first compound 0.316 µM
[16] = second compound 9.49 µM, first compound 1 µM
[17] = second compound 30 µM, first compound 0.0316 µM
[18] = second compound 30 µM, first compound 0.1 µM
[19] = second compound 30 µM, first compound 0.316 µM
[20] = second compound 30 µM, first compound 1 µM
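Also: spheroids exposed to drugs for seven days before the viability read.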

SMILES	IC50 (second compound 0.3 µM) [nM]	IC50 (second compound 0.949 µM) [nM]	IC50 (second compound 3 µM) [nM]	IC50 (second compound 9.49 µM) [nM]	IC50 (second compound 30 µM) [nM]	viability, T/C [1] [%]	viability, T/C [2] [%]	viability, T/C [3] [%]	viability, T/C [4] [%]	viability, T/C [5] [%]	viability, T/C [6] [%]	viability, T/C [7] [%]	viability, T/C [8] [%]	viability, T/C [9] [%]	viability, T/C [10] [%]	viability, T/C [11] [%]	viability, T/C [12] [%]	viability, T/C [13] [%]	viability, T/C [14] [%]	viability, T/C [15] [%]	further results
COc1c(OCCCN2CCOCC2)ccc2c3n(c(=NC(=O)c4cnc(N)nc4)nc12)CCN3 + CC(C)NCC(C(=O)N1CCN(c2ncnc3c2C(C)CC3O)CC1)c1ccc(Cl)cc1	31.3	29	26.4	21.5	< 3.16	49.7	41.8	43.7	52.2	51.5	36.3	37.6	49.3	46.8	46	41.5	61.7	52.5	43	44	viability, T/C (second compound 0.3 µM, first compound 0.00316 µM): 74.1%; viability, T/C (second compound 0.3 µM, first compound 0.01 µM): 78.6%; viability, T/C (second compound 0.949 µM, first compound 0.00316 µM): 67%; viability, T/C (second compound 0.949 µM, first compound 0.01 µM): 59.8%; viability, T/C (second compound 3 µM, first compound 0.00316 µM): 66.8%; viability, T/C (second compound 3 µM, first compound 0.01 µM): 53.3%; viability, T/C (second compound 9.49 µM, first compound 0.00316 µM): 60.5%; viability, T/C (second compound 9.49 µM, first compound 0.01 µM): 48.3%; viability, T/C [16]: 38.4%; viability, T/C (second compound 30 µM, first compound 0.00316 µM): 34%; viability, T/C (second compound 30 µM, first compound 0.01 µM): 34.5%; viability, T/C [17]: 33.2%; viability, T/C [18]: 32.9%; viability, T/C [19]: 25.9%; viability, T/C [20]: 41.5%
Cc1nc(NC(=O)N2CCCC2C(N)=O)sc1-c1ccnc(C(C)(C)C(F)(F)F)c1 (stereo not given) + CC(C)NCC(C(=O)N1CCN(c2ncnc3c2C(C)CC3O)CC1)c1ccc(Cl)cc1	7120	988	2690	2010	< 31.6	95.3	77	79.2	69.4	77.3	78.8	71.9	49.4	63.7	77.3	67.5	58	54.5	64.5	63	viability, T/C (second compound 0.3 µM, first compound 3.16 µM): 60.1%; viability, T/C (second compound 0.3 µM, first compound 10 µM): 44.7%; viability, T/C (second compound 0.949 µM, first compound 3.16 µM): 50.9%; viability, T/C (second compound 0.949 µM, first compound 10 µM): 40.9%; viability, T/C (second compound 3 µM, first compound 3.16 µM): 46.3%; viability, T/C (second compound 3 µM, first compound 10 µM): 50.8%; viability, T/C [16]: 55.8%; viability, T/C (second compound 9.49 µM, first compound 3.16 µM): 46%; viability, T/C (second compound 9.49 µM, first compound 10 µM): 39.8%; viability, T/C [17]: 39.1%; viability, T/C [18]: 40.9%; viability, T/C [19]: 34%; viability, T/C [20]: 32.9%; viability, T/C (second compound 30 µM, first compound 3.16 µM): 27.4%; viability, T/C (second compound 30 µM, first compound 10 µM): 24.5%
